Marks after values point to notes of the source that are not given here.
Key:
Velvetleaf = assay: Influence of water conditioners on the control of velvetleaf 21 DAT in the greenhouse; settings: velvetleaf 21 DAT greenhouse
[1] = tested on: glyphosate resistant canola Nexera 1012; assay: Canola field trial: flowering, yield components, oil, protein and seed yield; format: in vivo
Protocol: (§1) A trial was conducted to evaluate the effect of early and or late application of glyphosate with Composition 2 on yield of glyphosate resistant canola. The RR canola was Nexera 1012. The trial was conducted on a silt loam soil with 40-47% sand, 30-50% silt and 10-23% clay, 1.4-2.9% organic matter, and pH of 6.4-8.2. The plot was planted to field pea and then hard red spring wheat the previous two years. Treatments were arranged in a randomized complete block design with four (4) replications each while the control (no-Composition 2) was replicated only twice. Plots were seeded with Nexera 1012 at seeding depth of about 1.2 to 2.5 cm, 10° C. soil temperature and plant population of approximately 110-115 seeds m2. Plants were fertilized with 87-31-9-22 N—P—K—S pounds per acre via spreading urea and potash and putting phosphorus (Alpine and 11-52-0) and sulfur through the drill. In-crop application of glyphosate at a rate of 0.45 kg ha-1 (180 g/ac) with Composition 2 at 1 L/ac was applied at 3-4 leaf stage (Early application), 6 leaf stage (Normal application), after 10 leaf stage (late) and at both 3-4 leaf and after 10 leaf stages (Early/late application). The control treatments were sprayed with glyphosate alone. Each treatment was replicated four (4) times except the control treatment which had only two (2) replications.
(§2) Plant leaf tissues were collected at one and two weeks after spraying within each treatment to determine the mineral compositions. At physiological maturity with 70% of the seeds on the main raceme turned black, plants were swathed and allowed to cure for three weeks before being combined. Prior to swathing, fifty randomly selected plants were used for seed yield and yield components analysis. Data on number of fruits/plant, percent seed oil and seed protein were collected and analysed. An area of […] of swath for each plot was combined and used for yield (bu/ac) determination. Seed yield (bu/ac) from combine was adjusted to 8% seed moisture content. Variables response to treatments were compared by analysis of variance (ANOVA) by using SPSS statistical software and mean values were subjected to ANOVA and significant means at F<0.05 were separated by the Duncan's multiple range test.

[2] = tested on: glyphosate resistant canola Nexera 1012; assay: Canola leaf tissue mineral composition after glyphosate with or without Composition 2; format: in vivo; settings: for % K / % N / % P / % S / Fe ppm / Mn ppm / Zn ppm: Control: glyphosate 0.45 kg/ha alone
Protocol: as §1, §2

[3] = canola, Control: glyphosate 0.45 kg/ha alone
[4] = canola leaf tissue one week after application, Control: glyphosate alone
[5] = canola leaf tissue one week after spraying
[6] = canola leaf tissue two weeks after spraying

## N.N.O=S(=O)(O)O [AMS, Diammonium sulfate]
Velvetleaf; 2,4-D Acid (Rugged) 0.1 kg a.e/ha +2% AMS
  2,4-D Acid (% control): 73 ab %
Velvetleaf; 2,4-D DMA 0.1 kg a.e./ha +2% AMS
  2,4-D DMA (% control): 58 def %

## CNC.O=C(O)COc1ccc(Cl)cc1Cl [2,4-D DMA, 2,4-D Dimethylamine]
Velvetleaf; 2,4-D DMA 0.1 kg a.e./ha, herbicide alone
  2,4-D DMA (% control): 29 g %

## O=C(O)COc1ccc(Cl)cc1Cl [2,4-D Acid, 2,4-D]
Velvetleaf; 2,4-D Acid (Rugged) 0.1 kg a.e/ha, herbicide alone
  2,4-D Acid (% control): 31 g %

## O=C(O)CNCP(=O)(O)O [glyphosate]
[1]; canola seed, Control: glyphosate 0.45 kg/ha alone
  oil content: 37.7%
[1]; canola seed, Control: glyphosate alone
  percent protein: lowest value
[1]; [3]
  Number of fruits per plant: 78.5
  Seed yield: 40.9 bu/ac
  thousand seed weight: 3.1 g
[1]; control (no-Composition 2) compared to Early, Normal and Early/Late treatments
  Percent green counts: higher
[1]; no-Composition 2 (glyphosate alone) plots compared to Composition 2 treated plots
  Flowering: delayed
[2]; [4]
  Fe reduction: 22.7%
  Mn concentration drop from the initial concentration: 13.4%
  Zn concentration drop from the initial concentration: 14.5%
[2]; [5]
  % K: 4.1^a %
  % N: 3.7^a %
  % P: 0.3^a %
  % S: 1.0^a %
  Fe ppm: 85.1^a ppm
  Mn ppm: 76.4^a ppm
  Zn ppm: 20.7^a ppm
[2]; [6]
  % K: 4.3^a %
  % N: 4.6^a %
  % P: 0.5^a %
  % S: 1.3^a %
  Fe ppm: 105^a ppm
  Mn ppm: 83.2^a ppm
  Zn ppm: 22.6^a ppm

## COc1c(Cl)ccc(Cl)c1C(=O)O.NCCOCCO [Dicamba DGA, dicamba diglycolamine]
Velvetleaf; Dicamba DGA (Clarity) 0.034 kg a.e/ha, herbicide alone
  Dicamba DGA (% control): 36 g %

Source: US20160227783A1, “AGROCHEMICAL FORMULATION AID FOR MICRONUTRIENT UPTAKE IN PLANTS, PLANT HEALTH BENEFITS AND HERBICIDE PERFORMANCE” (Adjuvants Plus USA, INC., priority 2015, published 2016)
